The values that follow come from patent publication US11684644B2, “Composition for promoting absorption of phytochemicals” (MEIJI CO., LTD., priority 2018, dated 2023).

Like-named read-outs stand apart in the source and are kept apart here.

The nature of series [1]: Evaluation for dissolvability of phytochemical (dissolution rate in water). To be noted: for Dissolution rate: ultrapure water, shaken for 3 hours, centrifuged supernatant. From the text: In the present invention, the “dissolution rate” is an index indicating dissolvability of a compound into water, and is also represented by the value, in terms of the percentage (%), obtained by dividing a concentration (w/v) of the compound in a supernatant, which is obtained by shaking the compound in pure water to dissolve the compound therein and by centrifuging the solution, by a concentration (w/v) of the compound in pure water before being dissolved therein. The concentration may be measured by using a spectrophotometer. […] The temperature condition in the measurement of the “dissolution rate” is set to 21±2° C.
Furthermore, 10 mL of ultrapure water was added to the glucoside phytochemical such that the amount of aglycone (portion other than carbohydrate obtained by hydrolysis of glucoside) can be equal to 33.3 mg; namely, 67.3 mg of rutin (33.3 mg of quercetin); 89.6 mg of α-glucosyl rutin (33.3 mg of quercetin); 67.3 mg of hesperidin (33.3 mg of hesperetin); or 71.0 mg of naringin (33.3 mg of naringenin). As for the terpenoids, in accordance with the administering amount used in Experiments, 10 mL of ultrapure water was added to 3.3 mg of each of β-carotene and lycopene. The solutions thus prepared were shaken for 3 hours, and then, were centrifuged at 2000×g for 10 minutes. The centrifuged supernatants were filtrated by using a 0.45 μL filter. […] Each compound was dissolved in 80% methanol or methanol to obtain a calibration curve; and then, the concentration of the centrifuged supernatant was obtained. A series of the operations above were carried out under the temperature condition of 21±2° C. The dissolution rate was calculated in accordance with the following formula. Dissolution rate (%)=[(concentration of the centrifuged supernatant after dissolution by shaking (w/v))+(concentration of the solution before dissolution by shaking (w/v)]×100

Series [2] can be described thus: Experiment 3: promoting absorption of β-carotene, yogurts of strain combinations. Format: in vivo. To be noted: male, SD, oral; rat serum, 5 mg/kg-body weight β-carotene, 11.3 g/kg-body weight yogurt, up to 480 minutes; read-out: Area Under the blood concentration-time Curve (AUC) of β-carotene (converted). As to the method: (§1) Column temperature was set at 40° C.
The yogurts thus obtained contained 15 μg/g, 54 μg/g, and 67 μg/g of the polysaccharide, respectively.

A further series in a line: in vivo. To be noted: male, SD, rat, 5 mg/kg.
Series [3] is described as follows: Experiment 5: promoting absorption of β-carotene, comparison with other absorption promotors. Format: in vivo. To be noted: male, SD, oral; rat serum, 5 mg/kg-body weight β-carotene, 70 mg/kg-body weight polysaccharide, up to 480 minutes; read-out: Area Under the blood concentration-time Curve (AUC) of β-carotene (converted). As to the method:
A part of the yogurt of Experiment 4 (Lactobacillus bulgaricus OLL1251 and Streptococcus thermophilus OLS3290) was taken; and then, to the supernatant thereof was added ethanol the amount of which was three times as much as the supernatant. The resulting mixture was kept in a frozen state, and thereafter, the supernatant of the mixture was centrifuged to obtain a precipitate. This precipitate was freeze-dried to obtain a polysaccharide concentrate. In 11.3 g of the yogurt, 70 mg of the polysaccharide concentrate was included. Hereinafter, the polysaccharide concentrate obtained is called “lactic acid bacterium-originated polysaccharide concentrate”.

Series [4] can be described thus: Experiment 1: promoting absorption of β-carotene, yogurts of OLL1251 and other strains. As to conditions: male, SD, oral; rat serum, 5 mg/kg-body weight β-carotene, 11.3 g/kg-body weight yogurt, up to 480 minutes; read-out: Area Under the blood concentration-time Curve (AUC) of β-carotene (converted). The class given is in vivo. The protocol:
as §1
The yogurts thus obtained contained 136 μg/g, 88 μg/g, and 68 μg/g of the polysaccharide, respectively.

Setting [5] is: concentration of the centrifuged supernatant after shaking in ultrapure water, 21±2° C., glucosides in terms of the aglycone.

Consider `COc1ccc([C@@H]2CC(=O)c3c(O)cc(O[C@@H]4O[C@H](CO[C@@H]5O[C@@H](C)[C@H](O)[C@@H](O)[C@H]5O)[C@@H](O)[C@H](O)[C@H]4O)cc3O2)cc1O` [Hesperidin], for which the Saturated solubility in series [1] (setting [5]) was 0.5 mg/100 g. This compound gave a Dissolution rate in series [1] (21±2° C.) of 0.2%.

As to `CC(C)=CCC/C(C)=C/C=C/C(C)=C/C=C/C(C)=C/C=C/C=C(C)/C=C/C=C(C)/C=C/C=C(\C)CCC=C(C)C` [Lycopene], the Saturated solubility in series [1] was 0.1 or less mg/100 g. The Dissolution rate in series [1] (21±2° C.) is 0.1% or less.

In the case of `CC1=CCCC(C)(C)C1/C=C/C(C)=C/C=C/C(C)=C/C=C/C=C(C)/C=C/C=C(C)/C=C/C1=C(C)CCCC1(C)C` (stereo not drawn) [α-Carotene], the Saturated solubility in series [1] is 0.1 or less mg/100 g. For the same compound, the Dissolution rate in series [1] (21±2° C.) is given as 0.1% or less.

As to `C[C@@H]1O[C@@H](O[C@H]2[C@H](Oc3cc(O)c4c(c3)O[C@H](c3ccc(O)cc3)CC4=O)O[C@H](CO)[C@@H](O)[C@@H]2O)[C@H](O)[C@H](O)[C@H]1O` [Naringin], the Saturated solubility in series [1] stood at 55 mg/100 g. This compound came in with a Dissolution rate in series [1] (21±2° C.) of 17%.

The compound `Oc1cc(O)c2c(c1)O[C@H](c1ccc(O)c(O)c1)[C@H](O)C2` [Epicatechin] showed a Saturated solubility in series [1] of 287 mg/100 g.

For `CC1=C(/C=C/C(C)=C/C=C/C(C)=C/C=C/C=C(C)/C=C/C=C(C)/C=C/C2=C(C)CCCC2(C)C)C(C)(C)CCC1` [β-Carotene], the AUC was 88.8 ng·h/mL in series [2], 110 ng·h/mL in “in vivo”, 131 ng·h/mL in series [3] and 75 ng·h/mL in series [4]. For the same compound, the Saturated solubility in series [1] is reported as 0.1 or less mg/100 g. Also, in series [1] (21±2° C.), the Dissolution rate is on record as 0.1% or less.

`O=c1c(-c2ccc(O)cc2)coc2cc(O)cc(O)c12` [Genistein] registered a Saturated solubility in series [1] (setting [5]) of 0.6 mg/100 g. The compound further displayed a Dissolution rate in series [1] (21±2° C.) of 0.2%.

For `CC1=C[C@H](O)CC(C)(C)[C@H]1/C=C/C(C)=C/C=C/C(C)=C/C=C/C=C(C)/C=C/C=C(C)/C=C/C1=C(C)C[C@@H](O)CC1(C)C` [Lutein], the Saturated solubility in series [1] is 0.1 or less mg/100 g. Besides, the Dissolution rate in series [1] (21±2° C.) is 0.1% or less.

On to `CC1=C(/C=C/C(C)=C/C=C/C(C)=C/C=C/C=C(C)/C=C/C=C(C)/C=C/C(=O)[C@]2(C)C[C@@H](O)CC2(C)C)C(C)(C)C[C@H](O)C1` [Capsanthin], for which the Saturated solubility in series [1] is listed as 0.1 or less mg/100 g. In addition, the Dissolution rate in series [1] (21±2° C.) was 0.1% or less.

Regarding α-Glucosyl rutin, the Saturated solubility in series [1] is reported as 295 mg/100 g. In series [1] (21±2° C.), this compound returned a Dissolution rate of 89%.

Consider `O=c1c(O)c(-c2ccc(O)c(O)c2)oc2cc(O)cc(O)c12` [Quercetin], for which the Saturated solubility in series [1] came to 0.1 mg/100 g. Also, in series [1] (21±2° C.), the Dissolution rate was 0.1% or less.

On to `O=C1C[C@@H](c2ccc(O)cc2)Oc2cc(O)cc(O)c21` [Naringenin], for which the Saturated solubility in series [1] turned out to be 1.1 mg/100 g. This compound also yielded a Dissolution rate in series [1] (21±2° C.) of 0.3%.

Take `CC1=C(/C=C/C(C)=C/C=C/C(C)=C/C=C/C=C(C)/C=C/C=C(C)/C=C/C2=C(C)C[C@@H](O)CC2(C)C)C(C)(C)CCC1` [β-Cryptoxanthin]: in series [1], the Saturated solubility was 0.1 or less mg/100 g. For the same compound, the Dissolution rate in series [1] (21±2° C.) is listed as 0.1% or less.

The compound `C[C@@H]1O[C@@H](OC[C@H]2O[C@@H](Oc3c(-c4ccc(O)c(O)c4)oc4cc(O)cc(O)c4c3=O)[C@H](O)[C@@H](O)[C@@H]2O)[C@H](O)[C@H](O)[C@H]1O` [Rutin] returned a Saturated solubility in series [1] of 1.0 mg/100 g.

In the case of `O=c1c(O)c(-c2ccc(O)cc2)oc2cc(O)cc(O)c12` [Kaempferol], the Saturated solubility in series [1] is 0.1 mg/100 g. Besides, the Dissolution rate in series [1] (21±2° C.) is given as 0.1% or less.

As for `O=c1cc(-c2ccc(O)c(O)c2)oc2cc(O)cc(O)c12` [Luteolin], in series [1], the Saturated solubility was 0.1 or less mg/100 g. The Dissolution rate in series [1] (21±2° C.) is given as 0.1% or less.
